Measurements as given in patent US9540393B2, “Inhibitors of human immunodeficiency virus replication” (priority 2013, dated 2017).
Read-outs that look alike come from different tables or passages of the source.

Legend:
[1] = rcm bond, DCE
NL-RLuc virus = assay: Inhibition of HIV replication (NL-RLuc luciferase reporter virus in MT-2 cells); format: cell-based, human immunodeficiency virus (HIV); conditions: recombinant NL-Rluc virus infecting MT-2 cells, 5 days of incubation, luciferase readout; at least 2 experiments; serum condition not given (10% FBS, 15 mg/ml human serum albumin/10% FBS or 40% human serum/5% FBS)

## Cc1nc2cc3nn2c(c1[C@H](OC(C)(C)C)C(=O)O)-c1ccc2c(c1Cl)N(CC=CCCc1ccccc1CNC3=O)CCO2
[1]; from C=CCCc1ccccc1CNC(=O)c1cc2nc(C)c([C@H](OC(C)(C)C)C(=O)OCC)c(-c3ccc4c(c3Cl)N(CC=C)CCO4)n2n1, Hoveyda-Grubbs II, 32.0 mM, 83.0 °C, 3.0 h, 2 steps
  ring closure, yield of all isomers: 14.8%

## CCOC(=O)[C@@H](OC(C)(C)C)c1c(C)nc2cc3nn2c1N1CCC(C)(CC1)OCCCCOc1ccccc1CC(=O)CNC3=O
[1]; from C=CCOc1ccccc1CC(O)CNC(=O)c1cc2nc(C)c([C@H](OC(C)(C)C)C(=O)OCC)c(N3CCC(C)(OCC=C)CC3)n2n1, Hoveyda-Grubbs 2nd generation, 7.4 mM, 70.0 °C, 2.0 h, 3 steps
  ring closure, yield of all isomers: 43.1%

## Cc1nc2cc3nn2c(c1[C@H](OC(C)(C)C)C(=O)O)-c1ccc2c(c1Cl)N(CC/C=C\Oc1cc(F)ccc1CNC3=O)CCO2 (single isomer, unassigned) [Example 3]
NL-RLuc virus
  EC50: 42 nM

## Cc1nc2cc3nn2c(c1[C@H](OC(C)(C)C)C(=O)O)-c1ccc2c(c1Cl)N(CC=CCOc1cc(F)ccc1CNC3=O)CCO2
[1]; from C=CCOc1cc(F)ccc1CNC(=O)c1cc2nc(C)c([C@H](OC(C)(C)C)C(=O)OCC)c(-c3ccc4c(c3Cl)N(CC=C)CCO4)n2n1, Hoveyda-Grubbs II, 57.0 mM, 83.0 °C, 3.0 h, 2 steps
  ring closure, yield of all isomers: 30.5%

## Cc1nc2cc3nn2c(c1[C@H](OC(C)(C)C)C(=O)O)N1CCC(C)(CC1)OCCCCOc1ccccc1CC(O)CNC3=O (single isomer, unassigned) [Example 22]
NL-RLuc virus
  EC50: 57 nM

## Cc1nc2cc3nn2c(c1[C@H](OC(C)(C)C)C(=O)O)N1CCC(C)(CC1)OCCCCOc1ccccc1CC(O)CNC3=O (single isomer, unassigned) [Example 21]
NL-RLuc virus
  EC50: 136 nM

## Cc1nc2cc3nn2c(c1[C@H](OC(C)(C)C)C(=O)O)-c1ccc2c(c1Cl)N(C/C=C/COc1cc(F)ccc1CNC3=O)CCO2 (single isomer, unassigned) [Example 4]
NL-RLuc virus
  EC50: 1460 nM

## Cc1nc2cc3nn2c(c1[C@H](OC(C)(C)C)C(=O)O)-c1ccc2c(c1Cl)N(CC/C=C\Oc1cc(F)ccc1CNC3=O)CCO2 (single isomer, unassigned) [Example 5]
NL-RLuc virus
  EC50: 12100 nM

## Cc1nc2cc3nn2c(c1[C@H](OC(C)(C)C)C(=O)O)-c1ccccc1C=CCOc1cc(F)ccc1CNC3=O
[1]; from C=CCOc1cc(F)ccc1CNC(=O)c1cc2nc(C)c([C@H](OC(C)(C)C)C(=O)OCC)c(-c3ccccc3C=C)n2n1, Hoveyda-Grubbs II, 37.0 mM, 83.0 °C, 16.0 h, 2 steps
  ring closure, yield of all isomers: 5%

## Cc1nc2cc3nn2c(c1[C@H](OC(C)(C)C)C(=O)O)-c1ccc2c(c1Cl)N(C/C=C/COc1cc(F)ccc1CNC3=O)CCO2 (single isomer, unassigned) [Example 2]
NL-RLuc virus
  EC50: 31 nM

## Cc1nc2cc3nn2c(c1[C@H](OC(C)(C)C)C(=O)O)N1CCC(C)(CC1)OCCCCOc1ccccc1CC(O)CNC3=O (some centres unmarked)
[1]; from C=CCOc1ccccc1CC(O)CNC(=O)c1cc2nc(C)c([C@H](OC(C)(C)C)C(=O)OCC)c(N3CCC(C)(OCC=C)CC3)n2n1, Hoveyda-Grubbs 2nd generation, 6.0 mM, 70.0 °C, 2.0 h, 3 steps
  ring closure, yield of all isomers: 51.1%
